By EC50 is commonly meant the midpoint of the concentration-response curve. High values mean a less potent agent, low ones a more potent agent. Broadly, the CC50 is the concentration giving 50% cytotoxicity.

For one data set, the system named is HCV genotype 1b replicon. The data set is described as follows: HCV replicon assay (luciferase reporter). The conditions noted are these: Hepatitis C virus, Huh-7-derived Zluc cells, 72 hours incubation. In kind it is cell-based. The method, then:
Huh-7-derived cell line (Zluc) that harbors an HCV genotype 1b replicon and a luciferase reporter gene was grown in Dulbecco's Modified Eagle Medium (DMEM) supplemented with 10% fetal bovine serum, 2 mM GlutaMAX, 1% MEM nonessential amino acids, 100 IU/mL penicillin, 100 μg/mL streptomycin, and 0.5 mg/mL Geneticin® (G418). For dose response testing the cells were seeded in 96-well plates at 7.5×10^3 cells per well in a volume of 50 μl, and incubated at 37° C./5% CO2. Drug solutions were made up freshly in Huh-7 media as 2× stocks. Ten additional 5-fold dilutions were prepared from these stocks in DMEM without G418. At least three hours after Zluc cells were seeded, drug treatment was initiated by adding 50 μL of drug dilutions to the plates in duplicate. Final concentrations of drug ranged from 100 μM to 0.0000512 μM. […] After 72 hours of incubation, the inhibition of HCV replication was measured by quantification of photons emitted after mono-oxygenation of 5′-fluoroluciferin to oxyfluoroluciferin by firefly luciferase. […] The plates were shaken gently for 3 min at room temperature and luminescence was measured on a Victor^3 V 1420 multilabel counter (Perkin Elmer) with a 1 second read time using a 700 nm cut-off filter. The EC50 values were calculated from dose response curves from the resulting best-fit equations determined by Microsoft Excel and XLfit 5.2 software. […]

Data set [1] can be described thus: Liver pharmacokinetics following a single oral dose in CD-1 mice. The conditions noted are these: 2′-Me-2′-F-G TP in liver, single oral dose 10 mg/kg in PEG 200, CD-1 male mice, 4, 12 and 24 hours post dose. It counts as in vivo. The method, then:
A single oral dose of test compound at 10 mg/kg for 104a and 104b in PEG 200 (dose volume 5 mL/kg) is administered to nine CD-1 male mice. Five untreated animals are used for the collection of control plasma and liver. Terminal plasma and liver samples are collected from three animals per time point at 4, 12 and 24 hours post dose. Liver specimens are collected from all animals immediately after the incision. Freezing forceps stored in liquid nitrogen are used to freeze the liver before excision.
Liver samples are analyzed for the active species 2′-methyl-2′-fluoroguanosine triphosphate (2′-Me-2′-F-G TP) by LC-MS/MS. 2′-Me-2′-F-G TP levels are assayed by homogenizing (on ice) a known weight of mouse liver with 4× volume of 0.95 M trichloroacetic acid (TCA). Internal standard solution is added to the homogenate followed by neutralization with 20% ammonium hydroxide solution and addition of 500 μL 1% formic acid. The tissue samples are extracted by weak anion exchange solid phase extraction (SPE). Post extraction, the eluates are evaporated under nitrogen, followed by reconstitution before injection onto the LC-MS/MS system. […] The analyte is detected and quantified by tandem mass spectrometry in positive ion mode on an API4000 equipped with a Turbo Ionspray® interface. […]

Data set [2] is described as follows: Cytotoxicity evaluation, CellTiter-Blue cell viability. It counts as cell-based. The conditions noted are these: human, Zluc cells (HCV replicon), CellTiter-Blue Cell Viability Assay. The procedure:
For cytotoxicity evaluation, Zluc cells were treated with compound as described herein, and cell viability was monitored using the CellTiter-Blue Cell Viability Assay (Promega) by adding 20 μL of the assay solution to each well. The plates were then incubated at 37° C./5% CO2 for at least 3 hours. Fluorescence was detected in plates using excitation and emission wavelengths of 531 and 595 nm, respectively, in a Victor^3 V 1420 multilabel counter (Perkin Elmer) and CC50 values were determined using Microsoft Excel and XLfit 5.2 software.
(Resazurin is reduced to fluorescent resorufin, in cell work by metabolically active cells.)

Bounds are passed on as bounds.

Turning to `CCOc1nc(N)nc2c1ncn2C1O[C@H](CO[P@@](=O)(N[C@H](C)C(=O)OC(C)C)Oc2ccccc2)[C@@H](O)[C@@]1(C)F` (stereo partly drawn) [Compound 104b], the EC50 in the data set on HCV genotype 1b replicon lay within 0.25 to 1 µM. The “Mouse Liver TP AUC0-24” value in data set [1] is listed as “+++ (500 < +++ ≦ 2000)”. Further, the CC50 at 72 h in data set [2] is > 50 µM.

`CCOc1nc(N)nc2c1ncn2C1O[C@H](COP(=O)(N[C@H](C)C(=O)OC(C)C)Oc2ccccc2)[C@@H](O)[C@@]1(C)F` (stereo partly drawn) [Compound 104a]: the EC50 with HCV genotype 1b replicon lay in the range of 0.25 to 1 µM. Also, the “Mouse Liver TP AUC0-24” value in data set [1] is recorded as “+++ (500 < +++ ≦ 2000)”. Moreover, the CC50 at 72 h in data set [2] is > 50 µM.
